The source of these data is patent publication US20210269434A1, “TRICYCLIC COMPOUNDS AS INHIBITORS OF KRAS” (Incyte Corporation, priority 2020, published 2021).

Assay [1] concerns MIA PaCa-2 (KRAS G12C) cells. The experiment in a line: Cellular pERK HTRF assay (KRAS_G12C pERK). In kind it is cell-based, human. The following applies: Homo sapiens, MIA PaCa-2, 4 hours incubation, read-out: G12C_pERK. A digest of the protocol:
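MIA PaCa-2 cells plated overnight, then exposed to compound for 4 h at 37 °C (G12C compounds). Phospho-ERK1/2 measured in lysates by HTRF (665/620 nm) after overnight antibody incubation; IC50 from percent inhibition versus log concentration.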

In a further assay the target is KRAS G12C (Homo sapiens, UniProt P01116, G12C). The experiment in a line: GDP-GTP exchange assay (KRAS_G12C exchange). Format: biochemical. Conditions: bodipy-GDP loaded KRAS G12C 2.5 nM, SOS1 150 nM, GppNHp; 2 hours pre-incubation, 2 hours reaction; read-out: G12C_exchange. A digest of the protocol: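 Fluorescence exchange of bodipy-GDP for GppNHp, SOS1-driven, read at 485/520 nm; IC50 from four-parameter variable-slope fit. Both mutants used 2.5 nM final labelled protein and a 2 h compound pre-incubation. G12C reaction had 500 uM GppNHp and 150 nM SOS1 for 2 h; G12D ran 4 h.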
Chain of KRAS G12C (P01116 1-188 isoform P01116-2 G12C): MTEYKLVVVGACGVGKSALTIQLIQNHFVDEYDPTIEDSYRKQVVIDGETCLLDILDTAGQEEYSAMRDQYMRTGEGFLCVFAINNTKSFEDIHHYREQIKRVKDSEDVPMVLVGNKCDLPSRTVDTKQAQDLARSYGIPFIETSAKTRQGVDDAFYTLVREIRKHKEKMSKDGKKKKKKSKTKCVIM

In the case of `Cc1c(Cl)cc2[nH]ncc2c1-c1c(Cl)cc2c(nc(OC[C@@H]3CCCN3C)c3ncn([C@H]4CCN(C(=O)/C=C/CN(C)C)[C@H](CC#N)C4)c32)c1F` [Example 181a, 2-((2S,4S)-4-(8-chloro-7-(6-chloro-5-methyl-1H-indazol-4-yl)-6-fluoro-4-(((S)-1-methylpyrrolidin-2-yl)-methoxy)-1H-imidazo[4,5-c]quinolin-1-yl)-1-((E)-4-(dimethylamino)but-2-enoyl)piperidin-2-yl)acetonitrile], the IC50 (in assay [1]; on KRAS G12C) was at most 0.1 µM throughout.

For `Cc1cccc(-c2c(C)cc3c(nc(OC[C@@H]4CCCN4C)c4nnn([C@H]5CCN(C(=O)/C=C/CF)[C@H](CC#N)C5)c43)c2F)c1C` [Example 138, 2-((2S,4S)-4-(7-(2,3-dimethylphenyl)-6-fluoro-8-methyl-4-(((S)-1-methylpyrrolidin-2-yl)methoxy)-1H-[1,2,3]triazolo[4,5-c]quinolin-1-yl)-1-((E)-4-fluorobut-2-enoyl)piperidin-2-yl)acetonitrile], the IC50 (in assay [1]; at KRAS G12C) was at most 0.1 µM each time.

Regarding `Cc1cc2c(nc(OC[C@@H]3CCCN3C)c3nnn([C@H]4CCN(C(=O)/C=C/CF)[C@H](CC#N)C4)c32)c(F)c1-c1ccc(F)cc1` [Example 136, 2-((2S,4S)-4-(6-fluoro-7-(4-fluorophenyl)-8-methyl-4-(((S)-1-methylpyrrolidin-2-yl)methoxy)-1H-[1,2,3]triazolo[4,5-c]quinolin-1-yl)-1-((E)-4-fluorobut-2-enoyl)piperidin-2-yl)acetonitrile], the IC50 (in assay [1]; on KRAS G12C) was at most 0.1 µM each time.

Consider `C=CC(=O)N1CC[C@H](n2nnc3c(OC[C@@H]4CCCN4C)nc4c(F)c(-c5ccc(F)cc5)c(Cl)cc4c32)C[C@H]1CC#N` [Example 131, 2-((2S,4S)-1-acryloyl-4-(8-chloro-6-fluoro-7-(4-fluorophenyl)-4-(((S)-1-methylpyrrolidin-2-yl)methoxy)-1H-[1,2,3]triazolo[4,5-c]quinolin-1-yl)piperidin-2-yl)acetonitrile], for which the IC50 (in assay [1]; at KRAS G12C) was at most 0.1 µM each time.

In the case of `Cc1cc2c(nc(N3CC(C)(N(C)C)C3)c3nnn([C@H]4CCN(C(=O)/C=C/C(F)F)[C@H](CC#N)C4)c32)c(F)c1-c1cccc(Cl)c1C` [Example 102, 2-((2S,4S)-4-(7-(3-chloro-2-methylphenyl)-4-(3-(dimethylamino)-3-methylazetidin-1-yl)-6-fluoro-8-methyl-1H-[1,2,3]triazolo-[4,5-c]quinolin-1-yl)-1-((E)-4,4-difluorobut-2-enoyl)-piperidin-2-yl)acetonitrile], the IC50 (in assay [1]; at KRAS G12C) was at most 0.1 µM each time.

With `C=CC(=O)N1CC[C@H](n2cnc3c(N4CC(N(C)C)C4)nc4c(F)c(-c5cnc(C)c6ccccc56)c(Cl)cc4c32)C[C@H]1CC#N` [Example 268a, 2-((2S,4S)-1-acryloyl-4-(8-chloro-4-(3-(dimethylamino)azetidin-1-yl)-6-fluoro-7-(1-methylisoquinolin-4-yl)-1H-imidazo[4,5-c]quinolin-1-yl)piperidin-2-yl)acetonitrile], the IC50 (in assay [1]; at KRAS G12C) was at most 0.1 µM throughout.

As to `C=CC(=O)N1CCC(n2nnc3c(OC[C@@H]4CCCN4C)nc4c(F)c(-c5cc(O)cc6ccccc56)c(Cl)cc4c32)CC1` (single isomer, unassigned) [Example 14a], the IC50 (in assay [1]; at KRAS G12C) was at most 0.1 µM each time.

Take `C=CC(=O)N1CCC(n2cnc3c(OC[C@@H]4CCCN4C)nc4c(F)c(-c5cccc6ccccc56)c(Cl)cc4c32)CC1CC#N` (mixture of isomers) [Example 38, 2-(1-acryloyl-4-(8-chloro-6-fluoro-4-(((S)-1-methylpyrrolidin-2-yl)methoxy)-7-(naphthalen-1-yl)-1H-imidazo[4,5-c]quinolin-1-yl)piperidin-2-yl)acetonitrile]: the IC50 (in assay [1]; on KRAS G12C) was at most 0.1 µM in each case.

In the case of `Cc1cc2c(nc(N3CC(C)(N(C)C)C3)c3nnn([C@H]4CCN(C(=O)/C=C/CN(C)C)[C@H](CC#N)C4)c32)c(F)c1-c1c(C)c(Cl)cc2[nH]ncc12` [Example 196a, 2-((2S,4S)-4-(7-(6-chloro-5-methyl-1H-indazol-4-yl)-4-(3-(dimethylamino)-3-methylazetidin-1-yl)-6-fluoro-8-methyl-1H-[1,2,3]triazolo[4,5-c]quinolin-1-yl)-1-((E)-4-(dimethylamino)but-2-enoyl)piperidin-2-yl)acetonitrile], the IC50 (in assay [1]; at KRAS G12C) was at most 0.1 µM each time.

For the molecule `CC#CC(=O)N1CC[C@H](n2nnc3c(N4CC(N(C)C)C4)nc4c(F)c(-c5ccccc5C(F)(F)F)c(C)cc4c32)C[C@H]1CC#N` [Example 166a, 2-((2S,4S)-1-(but-2-ynoyl)-4-(4-(3-(dimethylamino)-azetidin-1-yl)-6-fluoro-8-methyl-7-(2-(trifluoromethyl)-phenyl)-1H-[1,2,3]triazolo-[4,5-c]quinolin-1-yl)piperidin-2-yl)acetonitrile], the IC50 (in assay [1]; on KRAS G12C) was at most 0.1 µM in each case.

`C=CC(=O)N1CCC(n2cnc3c(OC[C@@H]4CCCN4C)nc4c(F)c(-c5cc(O)ccc5C)c(Cl)cc4c32)CC1CC#N` (single isomer, unassigned) [Example 39a]: the IC50 (in assay [1]; at KRAS G12C) was at most 0.1 µM each time.

As for `C=CC(=O)N1CC[C@H](n2nnc3c(OC[C@@H]4CCCN4C)nc4c(F)c(-c5cccc(C)c5C)c(C)cc4c32)C[C@H]1CC#N` [Example 137, 2-((2S,4S)-1-acryloyl-4-(7-(2,3-dimethylphenyl)-6-fluoro-8-methyl-4-(((S)-1-methylpyrrolidin-2-yl)methoxy)-1H-[1,2,3]triazolo[4,5-c]quinolin-1-yl)piperidin-2-yl)acetonitrile], the IC50 (in assay [1]; on KRAS G12C) was at most 0.1 µM in each case.

On to `Cc1nccn1-c1nc2c(F)c(-c3ccc(F)cc3)c(Cl)cc2c2c1ncn2[C@H]1CCN(C(=O)/C=C/CF)[C@H](CC#N)C1` [Example 125, 2-((2S,4S)-4-(8-chloro-6-fluoro-7-(4-fluorophenyl)-4-(2-methyl-1H-imidazol-1-yl)-1H-imidazo[4,5-c]quinolin-1-yl)-1-((E)-4-fluorobut-2-enoyl)piperidin-2-yl)acetonitrile], for which the IC50 (in assay [1]; at KRAS G12C) was at most 0.1 µM each time.

For `C=CC(=O)N1CC[C@H](n2cnc3c(OC[C@@H]4CCCN4C)nc4c(F)c(-c5cccc(Cl)c5C)c(Cl)cc4c32)C[C@H]1CC#N` (single isomer, unassigned) [Example 118a], the IC50 (in assay [1]; on KRAS G12C) was at most 0.1 µM each time.

Take `CC#CC(=O)N1CCC(n2cnc3c(N4CC(C)(N(C)C)C4)nc4c(F)c(-c5cccc6cccc(Cl)c56)c(Cl)cc4c32)C[C@H]1CC#N` (single isomer, unassigned) [Example 213b]: the IC50 (in assay [1]; on KRAS G12C) was at most 0.1 µM each time.

Turning to `C=CC(=O)N1CC[C@H](n2nnc3c(N4CC(N(C)C)C4)nc4c(F)c(-c5ccccc5C5CC5)c(Cl)cc4c32)C[C@H]1CC#N` [Example 117, 2-((2S,4S)-1-acryloyl-4-(8-chloro-7-(2-cyclopropylphenyl)-4-(3-(dimethylamino)azetidin-1-yl)-6-fluoro-1H-[1,2,3]triazolo[4,5-c]quinolin-1-yl)piperidin-2-yl)acetonitrile], the IC50 (in assay [1]; at KRAS G12C) was at most 0.1 µM in each case.
